Assay results published in ChEMBL document CHEMBL1154469, “Design and synthesis of bisubstrate inhibitors of type 1 17beta-hydroxysteroid dehydrogenase: overview and perspectives” (Eur J Med Chem, 2008).

Key:
[1] = target: T1, 17-beta-hydroxysteroid dehydrogenase type 1 (Homo sapiens) (UniProt P14061); assay: Inhibition of 17beta-HSD1 expressed in HEK 293 cells assessed as conversion of [14C]estrone to [14C]estradiol at 0.1 uM using NADH; format: cell-based; settings: HEK293
T1 sequence (whole entry): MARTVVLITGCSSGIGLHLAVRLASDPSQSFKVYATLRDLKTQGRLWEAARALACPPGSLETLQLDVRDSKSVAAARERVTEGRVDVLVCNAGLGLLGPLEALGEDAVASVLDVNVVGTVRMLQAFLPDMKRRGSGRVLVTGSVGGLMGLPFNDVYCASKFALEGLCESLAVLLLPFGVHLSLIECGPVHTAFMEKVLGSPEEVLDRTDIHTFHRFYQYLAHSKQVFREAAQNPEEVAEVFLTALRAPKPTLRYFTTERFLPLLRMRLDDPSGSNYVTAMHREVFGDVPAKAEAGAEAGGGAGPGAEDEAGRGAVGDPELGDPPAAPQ

[2] = target: T2, 17-beta-hydroxysteroid dehydrogenase type 1 (Homo sapiens, UniProt P14061); assay: Inhibition of 17beta-HSD1 expressed in HEK 293 cells assessed as conversion of [14C]estrone to [14C]estradiol using NADPH; format: cell-based, HEK293
T2 sequence (P14061 whole entry): T1 sequence (whole entry)

Row | inhibition [1] [%] | IC50 [2] [nM] | SMILES
1 | 49 |  | C[C@]12CC[C@@H]3c4ccc(O)cc4CC[C@H]3[C@@H]1C[C@H](CCCCCCCCCCCCCc1cccc(CC(=O)O)c1)[C@@H]2O
2 |  | 8 | C[C@]12CC[C@@H]3c4ccc(O)cc4CC[C@H]3[C@@H]1C[C@H](CCCCCCCCC(=O)OC[C@H]1O[C@@H](n3cnc4c(N)ncnc43)[C@H](O)[C@@H]1O)[C@@H]2O
3 | 27 |  | C[C@]12CC[C@@H]3c4ccc(O)cc4CC[C@H]3[C@@H]1C[C@H](CCCCCCCCCCCCCc1cc(N)cc(CC(=O)O)c1)[C@@H]2O
